Measurements reported in PubChem BioAssay (NCI).
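Interpolation was linear, between the two tested concentrations surrounding the appropriate level; five concentrations were tested over 48 hours in 96-well plates. Abbreviation: GI50, concentration required for 50% inhibition of growth. Definition used: TGI = concentration required for complete inhibition of growth.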

Legend:
Assay in all cases: growth of human tumour cells (NCI), 48 h
[1] = system: SW-620 colon
[2] = system: OVCAR-8 ovarian
[3] = system: UACC-257 melanoma
[4] = system: CCRF-CEM leukemia
[5] = system: MDA-MB-231 breast
[6] = system: SN12C renal
[7] = system: U251 CNS
[8] = system: TK-10 renal
[9] = system: SK-MEL-2 melanoma
[10] = system: SR leukemia

Row | SMILES | GI50 [1] [µM] | TGI [1] [µM] | GI50 [2] [µM] | TGI [2] [µM] | GI50 [3] [µM] | TGI [3] [µM] | GI50 [4] [µM] | TGI [4] [µM] | GI50 [5] [µM] | TGI [5] [µM] | GI50 [6] [µM] | TGI [6] [µM] | GI50 [7] [µM] | TGI [7] [µM] | GI50 [8] [µM] | TGI [8] [µM] | GI50 [9] [µM] | TGI [9] [µM] | TGI [10] [µM] | GI50 [10] [µM]
1 | COc1ccc2c(c1)oc(=O)c1cc(OC)ccc12 | > 100 | > 100 | > 100 | > 100 | > 100 | > 100 | > 100 | > 100 | > 100 | > 100 | > 100 | > 100 | > 100 | > 100 | > 100 | > 100 | > 100 | > 100 | – | –
2 | CC(N)(/C=C/c1ccccc1)C(=O)O (centres undefined) | – | > 100 | – | > 100 | – | > 100 | – | – | – | > 100 | – | > 100 | – | > 100 | – | > 100 | – | > 100 | > 100 | –
3 | COc1ccc(Sc2nc3cc(N)cc(N)c3nc2-c2ccccc2)cc1 | 26.5 | > 100 | > 100 | > 100 | 43.2 | > 100 | 2.28 | 8.36 | > 100 | > 100 | > 100 | > 100 | > 100 | > 100 | 30.6 | > 100 | – | – | – | –
4 | N#CCCCCCOCCOCCOCCOCCOCCCCCC#N | – | > 100 | – | > 100 | – | > 100 | – | > 100 | – | – | – | > 100 | – | > 100 | – | > 100 | – | > 100 | > 100 | –
5 | CCCNCC(=O)O[C@]1(CC)C(=O)OCc2c1cc1n(c2=O)Cc2cc3ccccc3nc2-1 | – | – | – | 8.33 | – | 1.88 | – | 0.308 | – | – | – | 0.215 | – | 0.244 | – | > 100 | – | 3.68 | – | –
6 | COC(=O)C1=CO[C@@H](OC2OC(CO)C(O)C(O)C2O)[C@H]2[C@@H](C)[C@@H](O)[C@@H](O)[C@@H]12 (some centres undefined) | – | > 100 | – | > 100 | – | > 100 | – | – | – | > 100 | – | > 100 | – | > 100 | – | > 100 | – | > 100 | > 100 | –
7 | O=C(NCc1cccnc1)C1COc2cc(-c3cc(=O)c4ccccc4o3)ccc2O1 (centres undefined) | – | > 100 | – | > 55 | – | > 100 | – | > 100 | – | – | – | > 78 | – | > 100 | – | > 83.4 | – | > 68.7 | > 100 | –
8 | CC(=O)Nc1c(I)c(NC(C)=O)c(I)c(C(=O)O)c1I | > 100 | > 100 | > 100 | > 100 | > 100 | > 100 | > 100 | > 100 | > 100 | > 100 | > 100 | > 100 | – | – | > 100 | > 100 | > 100 | > 100 | > 100 | > 100
9 | O=C(OC1CCC2OOC1O2)c1ccc([N+](=O)[O-])cc1 (centres undefined) | – | > 100 | – | > 100 | – | > 100 | – | > 100 | – | – | – | > 100 | – | > 100 | – | > 100 | – | > 100 | > 100 | –
10 | Nc1nc(Cl)cc(NCC(O)CO)n1 (centres undefined) | – | > 100 | – | > 100 | – | > 100 | – | > 100 | – | – | – | > 100 | – | > 100 | – | > 100 | – | > 100 | > 100 | –
11 | CCOC(=O)C(N=C(c1ccccc1)c1ccccc1)N(C(=O)OC(C)(C)C)C(=O)OC(C)(C)C (centres undefined) | – | > 100 | – | > 100 | – | > 100 | – | – | – | – | – | > 100 | – | > 100 | – | > 100 | – | > 100 | > 100 | –
12 | COc1cc2c(cc1OC)CC(=O)Nc1cc(OC)c(OC)cc1CC2 | – | > 100 | – | > 100 | – | > 100 | – | > 100 | – | – | – | > 100 | – | > 100 | – | > 100 | – | > 100 | > 43.7 | –
13 | N/C(=N/N=C/c1ccccc1)N/N=C\c1ccccc1 | 3.86 | > 100 | 6.69 | > 100 | 7.5 | 27.6 | 5.13 | > 100 | 10.5 | > 100 | 5.6 | > 100 | 5.08 | 70.9 | 10.7 | > 100 | 3.58 | 43.9 | – | –
14 | COc1ccc(NC(=O)CC/C(CC(=O)c2ccco2)=N/NC(N)=S)cc1 | – | > 100 | – | > 100 | – | > 100 | – | > 100 | – | – | – | > 100 | – | > 100 | – | > 100 | – | > 100 | – | –
15 | CC[C@@]1(O)C(=O)OCc2c1cc1n(c2=O)Cc2cc3cccc([N+](=O)[O-])c3nc2-1 | – | – | 0.857 | > 100 | 2.81 | 36.9 | 0.0506 | 50.4 | – | – | 0.382 | 5.01 | 0.312 | 3.07 | 21 | > 100 | 6.11 | 24.8 | – | –
16 | COc1cc(-c2oc3c(OC)cc(OC)c(O)c3c(=O)c2OC)cc(OC)c1OC | – | > 100 | – | 32.7 | – | – | – | – | – | > 100 | – | > 100 | – | > 100 | – | > 100 | – | – | > 100 | –
17 | CC1(Br)CC2OC3(Br)C=CC(C)(O)C2(CC1=O)C3(C)C (centres undefined) | – | > 100 | – | > 100 | – | > 100 | – | > 36 | – | – | – | > 100 | – | > 100 | – | > 100 | – | > 100 | > 100 | –
18 | COc1ccc2cc(C(=O)/C=C/c3ccc(N(C)C)cc3)ccc2c1 | 87.3 | > 100 | > 100 | > 100 | 36.7 | > 100 | – | – | 40.2 | > 100 | > 100 | > 100 | 58.9 | > 100 | 43.9 | > 100 | 61.6 | > 100 | > 100 | 79.1
